21 molecules from patent publication US20260042755A1, “GPR6 INVERSE AGONISTS” (MapLight Therapeutics, Inc., priority 2022, published 2026) can be followed below.

Molecules are shown by their SMILES.

The target of one test is T1, GPR6 (Homo sapiens, UniProt P46095).
T1 construct: expressed in transfected cells; host or cells: CHO cells
Nature of the test: GPR6 antagonist functional cAMP assay (LANCE Ultra cAMP TR-FRET, CHO cells stably expressing GPR6). Format: cell-based. As to the method:
(§1) Example 56. GPR6 and GPR3 Antagonist Functional cAMP Assay
(§2) CHO cells stably expressing GPR6 or GPR3 receptors were dissociated from cell culture flasks and incubated for 2 h at 37° C. in a 10 cm dish in a humidified incubator. Cells were dissociated, counted to have 1e6 cells/mL (4.5e6 cells needed/384-well plate), washed once in starved media, than in D-PBS and finally suspended in assay buffer (Krebs-Ringer Bicarbonate Buffer with 1800 mg/L glucose, without calcium chloride and sodium bicarbonate (Sigma) in the presence of 0.1% BSA and 150 μM of Ro 20-1724 Phosphodiesterase inhibitor).
(§3) Cells in suspension from above were plated in 384-well white Optiplate (PerkinElmer) at 10,000 cells/well/10 μl, briefly centrifuged prior direct addition of compounds ([…]) in 10 mM DMSO using a Tecan D300e Digital Dispenser, final DMSO in each well was normalized to 0.1%. Cells were incubated in the presence of compounds for 45 min at 37° C. in a humidified incubator.
(§4) To measure cAMP levels, LANCE® Ultra cAMP assay (Perkin Elmer), a homogeneous time-resolved fluorescence resonance energy transfer (TR-FRET) immunoassay was used following manufacturer's recommendations. Plates were shaken for 1 h at room temperature before reading on a Tecan InfiniteF200Pro multi-mode plate reader using standard FRET settings (Excitation 340 nm, Emission at 615 nm). FRET values were reported as readings obtained at 665 nm. Data were normalized to DMSO (0.1%) and reference compounds (100%) and fit to a 4-parameter logistical fit to generate antagonist IC50s.
On the technique in general: Changes in cAMP serve as a functional read-out for many G protein-coupled receptors.

The target of the next test is T2, GPR3 (Homo sapiens, UniProt P46089).
T2 construct: expressed in transfected cells; host or cells: CHO cells
T2 sequence (P46089 whole entry, species assumed): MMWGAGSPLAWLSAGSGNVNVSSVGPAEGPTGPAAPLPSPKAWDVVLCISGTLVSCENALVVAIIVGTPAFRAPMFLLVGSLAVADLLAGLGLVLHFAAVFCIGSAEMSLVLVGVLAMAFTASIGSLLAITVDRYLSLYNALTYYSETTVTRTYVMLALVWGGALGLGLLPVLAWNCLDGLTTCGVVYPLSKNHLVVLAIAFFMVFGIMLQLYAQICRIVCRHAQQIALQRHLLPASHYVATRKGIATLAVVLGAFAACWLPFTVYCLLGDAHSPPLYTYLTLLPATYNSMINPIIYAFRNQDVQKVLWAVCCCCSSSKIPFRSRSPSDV
Nature of the test: GPR3 antagonist functional cAMP assay (LANCE Ultra cAMP TR-FRET, CHO cells stably expressing GPR3). Format: cell-based. Here is the method:
as §1, §2, §3, §4

Setting [1] is: CHO cells stably expressing GPR6, cAMP assay (Example 24).
[2] abbreviates: CHO cells stably expressing GPR3, cAMP assay (Example 24).
Setting [3] is: procedure as described in Example 24.
The mark [4] stands for this setting: CHO cells stably expressing GPR6, cAMP assay.
Setting [5] is: CHO cells stably expressing GPR3, cAMP assay.

T1 sequence (P46095 whole entry): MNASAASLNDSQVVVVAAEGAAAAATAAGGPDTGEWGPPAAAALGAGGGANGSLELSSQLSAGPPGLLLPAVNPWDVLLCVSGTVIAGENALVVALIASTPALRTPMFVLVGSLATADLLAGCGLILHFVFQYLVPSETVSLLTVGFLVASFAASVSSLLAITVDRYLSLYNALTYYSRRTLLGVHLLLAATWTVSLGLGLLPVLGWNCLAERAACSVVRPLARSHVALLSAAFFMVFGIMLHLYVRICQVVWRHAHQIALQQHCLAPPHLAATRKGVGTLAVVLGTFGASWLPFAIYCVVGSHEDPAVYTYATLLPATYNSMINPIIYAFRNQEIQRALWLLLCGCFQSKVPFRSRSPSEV

As for `Cn1cc(-c2nc3cncc(C#N)c3nc2N2CCC(Oc3ccc(F)cc3F)CC2)cn1` [Compound 436, 2-[4-(2,4-difluorophenoxy)piperidin-1-yl]-3-(1-methyl-1H-pyrazol-4-yl)pyrido[3,4-b]pyrazine-8-carbonitrile], the IC50 against GPR6 (setting [1]) and against GPR3 (setting [2]) was 1000 to 30000 nM throughout.

Turning to `CC(=O)N1CCc2nc(N3CCN(Cc4ccc(Cl)cc4Cl)CC3)c(-c3cnn(C)c3)nc2C1` [Compound 350, 1-(2-{4-[(2,4-dichlorophenyl)methyl]piperazin-1-yl}-3-(1-methyl-1H-pyrazol-4-yl)-5H,6H,7H,8H-pyrido[3,4-b]pyrazin-6-yl)ethan-1-one], the IC50 against GPR6 (procedure of Example 24) and on GPR3 (procedure of Example 24) was 1000 to 30000 nM throughout.

For `Fc1ccc(NC2CCN(c3nc4ccncc4nc3-c3cn[nH]c3)CC2)c(F)c1` [Compound 35, 1-(3-(1H-pyrazol-4-yl)pyrido[3,4-b]pyrazin-2-yl)-N-(2,4-difluorophenyl)piperidin-4-amine], the IC50 on GPR6 (setting [3]) and against GPR3 (setting [3]) was 1000 to 30000 nM in each case.

As to `CC(=O)N1CCc2nc(N3CCC(Oc4ccc(F)cc4F)CC3)c(-c3cnn(C4CN(C(C)=O)C4)c3)nc2C1` [Compound 163, 1-[3-(4-{6-acetyl-2-[4-(2,4-difluorophenoxy)piperidin-1-yl]-5H,6H,7H,8H-pyrido[3,4-b]pyrazin-3-yl}-1H-pyrazol-1-yl)azetidin-1-yl]ethan-1-one], the IC50 against GPR6 (setting [1]) and against GPR3 (setting [2]) was 1000 to 30000 nM in each case.

For the molecule `COC[C@](C)(O)c1cc2nc(-c3cnn(C)c3)c(N3CCC(Oc4ccc(F)cc4F)CC3)nc2cn1` (single isomer, unassigned) [Compound 689], the IC50 at GPR6 (procedure of Example 24) and on GPR3 (procedure of Example 24) was 100 to 1000 nM throughout.

In the case of `CC(=O)N1CCc2nc(N3CCC(Oc4ccc(F)cc4)C3)c(-c3cnn(C)c3)nc2C1` (stereo not drawn) [Compound 341, 1-{2-[3-(4-fluorophenoxy)pyrrolidin-1-yl]-3-(1-methyl-1H-pyrazol-4-yl)-5H,6H,7H,8H-pyrido[3,4-b]pyrazin-6-yl}ethan-1-one], the IC50 at GPR6 (procedure of Example 24) and on GPR3 (procedure of Example 24) was 1000 to 30000 nM each time.

As to `CC(=O)N1CCc2nc(N3CCC(Oc4cc(Cl)ccc4Cl)CC3)c(-c3cnn(C)c3)nc2C1` [Compound 430, 1-{2-[4-(2,5-dichlorophenoxy)piperidin-1-yl]-3-(1-methyl-1H-pyrazol-4-yl)-5H,6H,7H,8H-pyrido[3,4-b]pyrazin-6-yl}ethan-1-one], the results for the IC50 on GPR6 (setting [1]) and on GPR3 (setting [2]) were under 100 nM and 100 to 1000 nM, respectively.

With `CC(C)(O)[C@@H](O)c1cc2nc(N3CCC(=Cc4ccc(F)cc4F)CC3)c(-c3cnn(CF)c3)nc2cn1` (single isomer, unassigned) [Compound 785], the IC50 against GPR6 (procedure of Example 24) is under 100 nM; at GPR3 (procedure of Example 24) it was 1000 to 30000 nM.

Turning to `COC[C@@H]1C[C@H]1c1nc2c(nc1N1CCC(Oc3ccc(F)cc3F)CC1)CCN(C(C)=O)C2` [Compound 547, 1-{3-[(1R,2R)-2-(methoxymethyl)cyclopropyl]-2-[4-(2,4-difluorophenoxy)-1-piperidyl]-5,6,7,8-tetrahydro-1,4,6-triaza-6-naphthyl}-1-ethanone], the IC50 on GPR6 (setting [4]) and against GPR3 (setting [5]) was 1000 to 30000 nM throughout.

Consider `Cn1cc(-c2nc3cc(C(O)C(C)(C)O)ncc3nc2N2CCC(Oc3ccc(F)cc3F)CC2)cn1` (single isomer, unassigned) [Compound 561], for which the results for the IC50 at GPR6 (setting [4]) and at GPR3 (setting [5]) were under 100 nM and 100 to 1000 nM, respectively.

For `Cn1cc(-c2nc3c(Cl)nccc3nc2N2CCC(Oc3ccc(F)cc3F)CC2)cn1` [Compound 328, 1-[5-chloro-3-(1-methyl-1H-pyrazol-4-yl)pyrido[3,4-b]pyrazin-2-yl]-4-(2,4-difluorophenoxy)piperidine], the results for the IC50 on GPR6 (procedure of Example 24) and against GPR3 (procedure of Example 24) were 100 to 1000 nM and 1000 to 30000 nM, respectively.

`CC(=O)N1CCc2nc(N3CCC(Oc4ccc(F)cc4F)CC3)c(-c3cnn(C4CNC4)c3)nc2C1` [Compound 134, 1-{3-[1-(azetidin-3-yl)-1H-pyrazol-4-yl]-2-[4-(2,4-difluorophenoxy)piperidin-1-yl]-5H,6H,7H,8H-pyrido[3,4-b]pyrazin-6-yl}ethan-1-one]: the IC50 against GPR6 (setting [1]) and against GPR3 (setting [2]) was 1000 to 30000 nM throughout.

With `CC(C)(O)C(C)(O)c1cc2nc(N3CCN(Cc4ccccc4F)CC3)c(-c3cnn(CF)c3)nc2cn1` (stereo not drawn) [Compound 622, 2-{3-[1-(fluoromethyl)-4-pyrazolyl]-2-{4-[(o-fluorophenyl)methyl]-1-piperazinyl}-1,4,6-triaza-7-naphthyl}-3-methyl-2,3-butanediol], the IC50 is 100 to 1000 nM against GPR6 (procedure of Example 24) and 1000 to 30000 nM against GPR3 (procedure of Example 24).

With `Cn1cc(-c2nc3c(nc2N2CCC(Oc4ccc(F)cc4F)CC2)CC2COC(=O)N2C3)cn1` (stereo not drawn) [Compound 486, 2-(4-(2,4-difluorophenoxy)piperidin-1-yl)-3-(1-methyl-1H-pyrazol-4-yl)-9a,10-dihydro-5H-oxazolo[3′,4′:1,6]pyrido[3,4-b]pyrazin-7(9H)-one], the figures for the IC50 against GPR6 (setting [1]) and against GPR3 (setting [2]) were 100 to 1000 nM and 1000 to 30000 nM, respectively.

For `CC(=O)N1CCc2nc(-c3cccc(=O)[nH]3)c(N3CCC(Oc4ccc(F)cc4F)CC3)nc2C1` [Compound 167, 6-{6-acetyl-3-[4-(2,4-difluorophenoxy)piperidin-1-yl]-5H,6H,7H,8H-pyrido[3,4-b]pyrazin-2-yl}-1,2-dihydropyridin-2-one], the IC50 on GPR6 (setting [1]) and at GPR3 (setting [2]) was 1000 to 30000 nM each time.

With `CC(=O)N1CCc2nc(N3CCC(Oc4ccc(F)cc4F)CC3)c(-c3ncccn3)nc2C1` [Compound 37, 1-{2-[4-(2,4-difluorophenoxy)piperidin-1-yl]-3-(pyrimidin-2-yl)-5H,6H,7H,8H-pyrido[3,4-b]pyrazin-6-yl}ethan-1-one], the values for the IC50 on GPR6 (setting [3]) and at GPR3 (setting [3]) were 1000 to 30000 nM and 100 to 1000 nM, respectively.

Turning to `Cn1cc(-c2nc3cnc([C@@H](O)C(C)(C)O)cc3nc2N2CCN(Cc3ccc(F)cc3F)CC2)cn1` (single isomer, unassigned) [Compound 578], the IC50 lay within 100 to 1000 nM against GPR6 (setting [4]) and 1000 to 30000 nM on GPR3 (setting [5]).

Regarding `CN1CCc2nc(N3CCC(Oc4ccc(F)cc4F)CC3)c(-c3cn[nH]c3)nc2C1` [Compound 139, 4-(2,4-difluorophenoxy)-1-[6-methyl-3-(1H-pyrazol-4-yl)-5H,6H,7H,8H-pyrido[3,4-b]pyrazin-2-yl]piperidine], the IC50 against GPR6 (setting [1]) and against GPR3 (setting [2]) was 1000 to 30000 nM in each case.

In the case of `COc1cccnc1-c1nc2c(nc1N1CCC(Oc3ccc(F)cc3F)CC1)CCN(C(C)=O)C2` [Compound 80, 1-{2-[4-(2,4-difluorophenoxy)piperidin-1-yl]-3-(3-methoxypyridin-2-yl)-5H,6H,7H,8H-pyrido[3,4-b]pyrazin-6-yl}ethan-1-one], the values for the IC50 against GPR6 (setting [1]) and at GPR3 (setting [2]) were at least 30000 nM and 1000 to 30000 nM, respectively.

With `CC(C)(O)[C@H](O)c1cc2nc(N3CCN(Cc4cc(F)ccc4F)CC3)c(-c3cnn(CF)c3)nc2cn1` (single isomer, unassigned) [Compound 726], the IC50 on GPR6 (procedure of Example 24) lay in the range of 100 to 1000 nM; against GPR3 (procedure of Example 24), 1000 to 30000 nM.

For the molecule `CC(=O)N1CCc2nc(N3CCC(C(=O)N(C)C)C3)c(-c3cnn(C)c3)nc2C1` (stereo not drawn) [Compound 388, 1-[6-acetyl-3-(1-methyl-1H-pyrazol-4-yl)-5H,6H,7H,8H-pyrido[3,4-b]pyrazin-2-yl]-N,N-dimethylpyrrolidine-3-carboxamide], the values for the IC50 on GPR6 (setting [1]) and at GPR3 (setting [2]) were at least 30000 nM and 100 to 1000 nM, respectively.

The IC50 is the midpoint of a concentration-inhibition curve.
